How the values were obtained:
Assay type in all cases: in vivo, mice
[1] = system: M109 cells; assay: Effect of ligand-immunogen conjugates in combination with radiation on tumor volume
Protocol: (§1) Six to eight-week old (˜20-22 grams) female Balb/c mice were immunized subcutaneously at multiple sites with fluorescein (FITC)-labeled keyhole limpet hemocyanin (KLH) and were injected with GPI-0100, a saponin adjuvant. After assuring that anti-FITC antibody titers were high in all mice (as evidenced by the results of ELISA assays of serum samples of the mice), each animal was injected subcutaneously in the shoulder with 1×10^6 M109 cells following the pre-immunization with FITC-KLH. M109 cells are a syngeneic lung cancer cell line that expresses high levels of the folate receptor. Cancer loci were then allowed to attach and grow. When the tumor size reached about 300 mm^2 (about 2 weeks post M109 cell injection), treatments were initiated (day 1).
The mice were divided into four groups (4 mice per group). One group was injected subcutaneously with phosphate-buffered saline (PBS). Two other groups were injected subcutaneously with 500 nmoles/kg of folate-FITC and 20,000 IU/dose of recombinant human IL-2 in a series of 5 daily injections for three weeks (5 days on and 2 days off). The mice were also injected subcutaneously with IFN-α at 25,000 IU/dose (3 times per week for 3 weeks). One of these groups also received a single dose of radiation of 3 Gy on day 1. The fourth group received only a single dose of radiation of 3 Gy on day 1. The radiation was performed with a device approved for human use and calibrated to give the desired radiation dose to mice.
The efficacy of these therapies were then evaluated by monitoring tumor volumes. Tumor volumes were calculated using the equation V=a×b^2/2, where “a” is the length of the tumor and “b” is the width expressed in millimeters. The tumors were measured using calipers.
The procedures were similar to those described in Example 3 except that the radiation was given in three doses of three Gy each on days 1, 5, and 12.

[2] = system: M109 cells; assay: Effect on non-irradiated tumors (tumor volume, two tumor sites); settings: folate-FITC
Protocol: as §1, with “each animal was injected subcutaneously in the shoulder with 1×10^6 M109 cells following” left out
[…] One group was injected subcutaneously with phosphate-buffered saline (PBS). Two other groups were injected subcutaneously with 500 nmoles/kg of folate-FITC and 20,000 IU/dose of recombinant human IL-2 in a series of 5 daily injections for three weeks (5 days on and 2 days off). The mice were also injected subcutaneously with IFN-α at 25,000 IU/dose (3 times per week for 3 weeks). […]
The efficacy of these therapies were then evaluated by monitoring tumor volumes. Tumor volumes were calculated using the equation V=a×b^2/2, where “a” is the length of the tumor and “b” is the width expressed in millimeters. The tumors were measured using calipers. […]

[3] = system: M109 tumors; assay: Effect of ligand-immunogen conjugates in combination with taxol on tumor volume; settings: folate-FITC and cytokines with 3 doses of taxol (20 mg/kg, every other day) in place of radiation

For `Nc1nc2ncc(CNc3ccc(C(=O)NC(CCC(=O)NCCNC(=S)Nc4ccc(C(=O)O)c(-c5c6ccc(=O)cc-6oc6cc(O)ccc56)c4)C(=O)O)cc3)nc2c(=O)[nH]1` (stereo not drawn) [folate-FITC], the “effect on tumor volume (FIG. 1)” value ([1]; 500 nmoles/kg folate-FITC + IL-2 20,000 IU/dose + IFN-α 25,000 IU/dose s.c., 3 weeks, single dose of radiation of 3 Gy on day 1, FITC-KLH immunized Balb/c mice) was “act synergistically with low dose radiation to eliminate tumors”, the “effect on tumor volume (FIG. 2)” value ([1]; folate-FITC plus IL-2 and IFN-α, radiation three doses of three Gy on days 1, 5, and 12) was “synergistic with low dose radiation to eliminate tumors” and the “mice tumor-free at the end of the assay” value ([1]; folate-FITC plus IL-2 and IFN-α, radiation three doses of three Gy on days 1, 5, and 12, 4 mice per group) was “Two out of the four mice”. The “mice completely tumor-free after treatment” value ([2]; cytokines and radiation (3 Gy days 1 and 5 on tail tumor only), 6 mice per group) was “Two out of six mice”, the “response of tumors on the same animal that were not irradiated (FIG. 4)” value ([2]; cytokines and radiation, tail tumor irradiated days 1 and 5 with 3 Gy per dose, neck tumor not irradiated) was “improved response” and the “effect on tumor mass in combination with taxol (FIG. 5)” value [3] was “not synergistic with taxol”.
